Data as given in the supplement of paper PMC10307832.

Experiments:
Assay in all cases: relative viability (nuclei count vs DMSO), 5 days (fraction); higher = more cells survive
Sulindac + Phenformin = compound: CC1=C(CC(=O)O)c2cc(F)ccc2/C1=C\c1ccc([S+](C)[O-])cc1 [Sulindac] + N=C(N)NC(=N)NCCc1ccccc1 [Phenformin] (partner 250 µM)
In short: (§1)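 Each reported value is a median over duplicate plates. It expresses relative viability: treated-well nuclei count divided by vehicle-well nuclei count. Lung cancer cell lines in 1536-well plates were dosed by pin tool a day after seeding, alone with one drug or with a fixed anchor-drug dose plus five library-drug doses (not always all listed) in √10 steps, and nuclei were counted after 5 days.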

Sulindac + Decitabine = compound: CC1=C(CC(=O)O)c2cc(F)ccc2/C1=C\c1ccc([S+](C)[O-])cc1 [Sulindac] + Nc1ncn([C@H]2C[C@H](O)[C@@H](CO)O2)c(=O)n1 [Decitabine] (partner 2 µM)
In short: as §1

[1] = compound: CN[C@@H]1C[C@H]2O[C@@](C)([C@@H]1OC)n1c3ccccc3c3c4c(c5c6ccccc6n2c5c31)C(=O)NC4 [Staurosporine] + Cc1nc(NC(=O)N2CCC[C@H]2C(N)=O)sc1-c1ccnc(C(C)(C)C(F)(F)F)c1 [Alpelisib] (partner 2 µM)
In short: as §1

[2] = compound: O=c1[nH]cc(F)c(=O)[nH]1 [5-Fluorouracil] + CS(=O)(=O)CCNCc1ccc(-c2ccc3ncnc(Nc4ccc(OCc5cccc(F)c5)c(Cl)c4)c3c2)o1 [Lapatinib] (partner 2 µM)
In short: as §1

Row | Cell Line | relative viability (Sulindac + Phenformin; first compound 0.08 µM) | relative viability (Sulindac + Phenformin; first compound 0.253 µM) | relative viability (Sulindac + Phenformin; first compound 0.8 µM) | relative viability (Sulindac + Phenformin; first compound 2.53 µM) | relative viability (Sulindac + Phenformin; first compound 8 µM) | relative viability (Sulindac + Decitabine; first compound 0.08 µM) | relative viability (Sulindac + Decitabine; first compound 0.253 µM) | relative viability (Sulindac + Decitabine; first compound 0.8 µM) | relative viability (Sulindac + Decitabine; first compound 2.53 µM) | relative viability (Sulindac + Decitabine; first compound 8 µM) | relative viability ([1]; first compound 0.005 µM) | relative viability ([1]; first compound 0.01581 µM) | relative viability ([1]; first compound 0.05 µM) | relative viability ([1]; first compound 0.5 µM) | relative viability ([2]; first compound 0.02 µM) | relative viability ([2]; first compound 0.2 µM) | relative viability ([2]; first compound 0.6325 µM) | relative viability ([2]; first compound 2 µM) | relative viability ([1]; first compound 0.1581 µM)
1 | HCC-827 | 0.395 | 0.367 | 0.414 | 0.413 | 0.426 | 0.342 | 0.31 | 0.328 | 0.332 | 0.291 | 1.1 | 0.852 | 0.748 | 0.431 | 0.159 | 0.203 | 0.191 | 0.187 | –
2 | NCI-H727 | 0.406 | 0.554 | – | 0.564 | 0.584 | 0.965 | 1.02 | 0.874 | 0.866 | 0.957 | 0.27 | 0.291 | 0.212 | 0.148 | 1.08 | 1 | 0.743 | 0.594 | 0.234
3 | CAL-12T | 0.662 | 0.615 | 0.418 | 0.529 | 0.681 | – | – | – | – | – | 0.374 | 0.146 | 0.125 | 0.0729 | 0.573 | 0.897 | 0.649 | 0.559 | 0.0823
4 | NCI-H1648 | – | – | – | – | – | 0.641 | 0.558 | – | 0.462 | 0.452 | – | – | – | – | – | – | – | – | –
5 | NCI-H522 | 0.709 | 0.715 | 0.689 | 0.688 | 0.674 | 0.643 | 0.718 | 0.652 | 0.667 | 0.687 | – | – | – | – | – | – | – | – | –
6 | IA-LM | – | – | – | – | – | – | – | – | – | – | 0.577 | – | 0.281 | 0.0757 | 0.812 | 0.461 | 0.293 | 0.352 | 0.211
7 | EPLC-272H | 0.272 | 0.324 | – | 0.307 | 0.263 | 0.313 | – | 0.301 | 0.369 | 0.428 | 0.977 | 0.122 | 0.459 | 0.188 | 0.97 | 0.879 | 0.358 | 0.339 | 0.156
8 | A-427 | 0.332 | 0.324 | 0.248 | 0.334 | 0.354 | 0.469 | 0.521 | 0.552 | 0.52 | 0.6 | 1.03 | 0.889 | 0.374 | 0.143 | 1.02 | 1.07 | 1.07 | 0.792 | 0.25
9 | NCI-H661 | 0.244 | 0.258 | 0.28 | 0.246 | 0.277 | 0.648 | 0.544 | 0.523 | 0.574 | 0.609 | 0.651 | 0.313 | 0.303 | 0.251 | 0.482 | 0.526 | 0.558 | 0.51 | 0.283
10 | NCI-H1993 | 0.431 | 0.479 | 0.51 | 0.461 | 0.531 | 0.558 | 0.298 | 0.454 | 0.61 | 0.627 | 0.623 | 0.668 | 0.578 | 0.449 | 0.706 | 0.765 | 0.65 | 0.591 | 0.503
11 | NCI-H358 | 0.362 | 0.369 | 0.221 | 0.312 | 0.385 | 0.235 | 0.2 | 0.196 | 0.186 | 0.239 | 0.553 | 0.222 | 0.19 | 0.161 | 0.509 | 0.508 | 0.435 | 0.352 | 0.144
